The record followed here is ChEMBL document CHEMBL1201862, “PubChem BioAssay data set” (2004).

What all share (test): inhibition of tumour cell growth, NCI panel, 48 h
Assay [1] has as its system 786-0.
For assay [2], the system named is UACC-62.
The test system of assay [3] is HCC 2998.
The test system of assay [4] is OVCAR-3.
The subject of assay [5] is RPMI-8226.
The test system of assay [6] is NCI-H23.
For assay [7], the system named is COLO 205.
The subject of assay [8] is T47D.
Assay [9] has as its system SW-620.
Assay [10] has as its system RXF 393.
The subject of assay [11] is K562.
Assay [12] has as its system SK-MEL-2.
For assay [13], the system named is NCI/ADR-RES.
Assay [14] concerns OVCAR-4.
Assay [15] deals with KM12.
Assay [16] has as its system UO-31.
Assay [17] deals with LOX IMVI.
Assay [18] concerns NCI-H522.
Assay [19] has as its system OVCAR-8.

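Dose response: 5 concentrations. Exposure: 48 h. Format: 96-well plates. Endpoint: linear interpolation; highest concentration if not reached. GI50: concentration for 50% inhibition of growth.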 Calls of active or inactive are those of the source. Cut-off read from the data, not from the text of the source: active = GI50 up to about 1.1 µM and inactive = higher.

Consider `[O-][S+](Cc1ccccc1)c1ccccc1Cn1cccc1` (configuration not stated), for which the GI50 in assay [1] is > 100 µM (inactive); in assay [2], 71.6 µM (inactive); in assay [3], > 100 µM (inactive); in [4] it was > 100 µM (inactive); in [5], > 100 µM (inactive); in [6], > 100 µM (inactive). Moreover, the GI50 is > 100 µM (inactive) in assay [7]; > 100 µM (inactive) in assay [8]; > 100 µM (inactive) in assay [9]; 42.8 µM (inactive) in assay [10]; 71.1 µM (inactive) in assay [11]; > 100 µM (inactive) in assay [12]. The GI50 was > 100 µM (inactive) in [13]; 41.9 µM (inactive) in assay [14]; > 100 µM (inactive) in assay [15]; > 100 µM (inactive) in assay [16]; > 100 µM (inactive) in assay [17].
For the compound `CSC1=Nc2ccccc2N=C(c2ccc(Cl)cc2)C1`, the GI50 in [1] was 30.3 µM (inactive); in assay [2], 42.8 µM (inactive); in assay [3], > 10 µM (inactive); in assay [4], 33.3 µM (inactive); in assay [5], 33.4 µM (inactive); in [6], 31.7 µM (inactive). The GI50 was 59.6 µM (inactive) in assay [7]; 39.1 µM (inactive) in assay [9]; 20.4 µM (inactive) in [10]; 34.8 µM (inactive) in assay [11]; 25.4 µM (inactive) in assay [12]; > 100 µM (inactive) in assay [14]. The GI50 in assay [18] is 43.1 µM (inactive); in [15], 36.8 µM (inactive); in assay [19] it was 52.7 µM (inactive); in [16] it was 24.5 µM (inactive); in [17], 27.1 µM (inactive).
As for `COC1=C(OC)CCC(/C(C#N)=C/c2ccc(OC)c(OC)c2)=C1`, the GI50 in assay [1] is 67.5 µM (inactive); in assay [2], > 100 µM (inactive); in assay [3], > 100 µM (inactive); in assay [4], > 100 µM (inactive); in assay [5], > 100 µM (inactive); in assay [6], 79.1 µM (inactive). The GI50 in assay [7] is 95.3 µM (inactive); in assay [9], > 100 µM (inactive); in [10] it was 36.7 µM (inactive); in assay [11] it was 48.3 µM (inactive); in assay [12], 85.9 µM (inactive); in assay [14] it was > 100 µM (inactive). Besides, the GI50 in assay [18] is 21.4 µM (inactive); in assay [15] it was > 100 µM (inactive); in assay [19] it was > 100 µM (inactive); in assay [16], 36.1 µM (inactive); in [17] it was > 100 µM (inactive).
With `COC(=O)CC(NC(=O)OCc1ccccc1)C(C(C)=O)C(=O)OCc1ccccc1` (configuration not stated), the GI50 in assay [1] was > 31.6 µM (inactive); in [2] it was > 31.6 µM (inactive); in assay [3] it was > 10 µM (inactive); in assay [4], > 31.6 µM (inactive); in [5], > 31.6 µM (inactive); in [6], > 31.6 µM (inactive). Besides, the GI50 in assay [7] is > 31.6 µM (inactive); in assay [9], > 31.6 µM (inactive); in [10], > 10 µM (inactive); in [11], > 31.6 µM (inactive); in assay [12] it was > 10 µM (inactive); in assay [14], > 10 µM (inactive). The GI50 was > 31.6 µM (inactive) in assay [18]; > 31.6 µM (inactive) in [15]; > 31.6 µM (inactive) in [19]; > 31.6 µM (inactive) in assay [16]; > 100 µM (inactive) in [17].
On to `CN(C)/C(=N/C(=O)Nc1ccccc1)SCc1ccccc1`, for which the GI50 in assay [1], in [2], in assay [3], in [4], in [5] and in assay [6] was > 100 µM (inactive) in each case. Further, the GI50 in [7] is > 100 µM (inactive); in assay [9], > 100 µM (inactive); in assay [10] it was 58.9 µM (inactive); in [11] it was 76.9 µM (inactive); in assay [12] it was 85.1 µM (inactive); in [14], > 100 µM (inactive). In addition, the GI50 in assay [18] was 91.2 µM (inactive); in assay [15], > 100 µM (inactive); in assay [19], > 100 µM (inactive); in [16] it was > 100 µM (inactive); in assay [17] it was > 100 µM (inactive).
Take `CCCCCCCCCCCCCC1CCC(CC)N1` (configuration not stated): the GI50 was 17.5 µM (inactive) in assay [1]; 6.98 µM (inactive) in [2]; 2.41 µM (inactive) in [3]; 16.2 µM (inactive) in [4]; 14 µM (inactive) in assay [5]; 18.6 µM (inactive) in assay [6]. For the same compound, the GI50 in assay [7] is 15.1 µM (inactive); in assay [9], 15.9 µM (inactive); in [10], 17.9 µM (inactive); in [11], 14.8 µM (inactive); in assay [12], 21.8 µM (inactive); in [14] it was 17.4 µM (inactive). In addition, the GI50 in assay [18] was 18.2 µM (inactive); in assay [15] it was 17.2 µM (inactive); in assay [19] it was 20 µM (inactive); in assay [16] it was 14.2 µM (inactive); in assay [17], 17.5 µM (inactive).
On to `O=C/C1=C/C2=Cc3ccccc3C=C(/C=C(/C=O)C1)C2`, for which the GI50 is 78.2 µM (inactive) in assay [1]; 73.6 µM (inactive) in assay [2]; 45.9 µM (inactive) in [3]; 37.5 µM (inactive) in assay [4]; 32 µM (inactive) in [5]; 32.9 µM (inactive) in assay [6]. Moreover, the GI50 was > 100 µM (inactive) in assay [7]; 44.7 µM (inactive) in assay [9]; 28.1 µM (inactive) in assay [10]; 18.1 µM (inactive) in assay [11]; > 100 µM (inactive) in [12]; 46.7 µM (inactive) in assay [14]. Besides, the GI50 was > 100 µM (inactive) in [18]; 36.1 µM (inactive) in assay [15]; 28.9 µM (inactive) in assay [19]; 34 µM (inactive) in assay [16]; 33.9 µM (inactive) in assay [17].
For `CC(C)(C)OC(=O)c1cnc(Cl)cn1`, the GI50 in [1] was > 100 µM (inactive); in [2], 31.8 µM (inactive); in assay [5], 23.7 µM (inactive); in assay [6] it was 20.7 µM (inactive); in [7], 71.3 µM (inactive); in [8], 35.2 µM (inactive). In addition, the GI50 in assay [9] is 55.8 µM (inactive); in assay [11] it was 28.4 µM (inactive); in assay [12], 29.9 µM (inactive); in [13] it was 50 µM (inactive); in assay [14], 28.1 µM (inactive); in [18], 1.05 µM (active). Also, the GI50 is 22.3 µM (inactive) in assay [15], 38.2 µM (inactive) in assay [19], 6.19 µM (inactive) in assay [16] and 23.8 µM (inactive) in assay [17].
Turning to `NNC(=O)C1CCC(=O)N1S(=O)(=O)c1ccccc1` (configuration not stated), the GI50 in assay [1], in assay [2], in assay [3], in assay [4], in [5] and in assay [6] was > 100 µM (inactive) throughout. Besides, the GI50 in [7], in [9], in [10], in [11], in [12] and in assay [14] was > 100 µM (inactive) in each case. Further, the GI50 in [18], in assay [15], in assay [19], in assay [16] and in assay [17] was > 100 µM (inactive) in each case.
